Measured values reported in patent publication US20250339445A1, “Modulators of Orphan Nuclear Receptors for Treating Pancreatitis, Glioblastoma, Sarcopenia and Stroke” (Emory University, priority 2020, published 2025).
“Also recorded” adds a separate entry of the source.

What was measured:
Assay type in all cases: cell-based
RORα = biological target: T1, RORα (Homo sapiens, UniProt P35398); assay: RORα activity by luciferase reporter (miR-122 promoter) in Huh-7 cells
T1 construct: endogenous in cells; host or cells: Huh-7 (Huh7) human hepatocellular carcinoma cells
T1 sequence (P35398 1-523): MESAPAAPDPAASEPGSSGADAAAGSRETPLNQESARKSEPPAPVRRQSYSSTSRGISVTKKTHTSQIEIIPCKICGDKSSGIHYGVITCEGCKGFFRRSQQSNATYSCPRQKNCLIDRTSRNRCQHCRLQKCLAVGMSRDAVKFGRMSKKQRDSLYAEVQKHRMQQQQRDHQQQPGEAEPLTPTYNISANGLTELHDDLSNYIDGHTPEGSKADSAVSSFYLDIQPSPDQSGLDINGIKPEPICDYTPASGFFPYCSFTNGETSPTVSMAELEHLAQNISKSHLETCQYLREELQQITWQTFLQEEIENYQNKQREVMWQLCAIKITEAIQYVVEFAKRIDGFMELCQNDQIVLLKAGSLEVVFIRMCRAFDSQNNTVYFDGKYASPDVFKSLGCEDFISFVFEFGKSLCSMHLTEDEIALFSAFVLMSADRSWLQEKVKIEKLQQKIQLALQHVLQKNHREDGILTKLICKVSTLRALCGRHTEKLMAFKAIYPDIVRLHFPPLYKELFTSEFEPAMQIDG
Protocol: Huh-7 cells were transfected with a luciferase reporter plasmid containing the miR-122 promoter (extends to −900 from the transcription start site) with intact wild-type (WT) RORα response element (RORE) or mutated RORE (mut). The cells were treated with Compound 1 one day (24 hours) post-transfection at the indicated concentrations. Luciferase expression was measured after 24 hours of treatment and normalized to Renilla Luciferase activity expressed from a co-transfected pRL plasmid. The pRL Vector, which provides constitutive expression of Renilla luciferase, was used in combination with a firefly luciferase vector to co-transfect cells. Expression of Renilla luciferase provides an internal control value to which expression of the experimental firefly luciferase reporter gene may be normalized.
Luciferase assay. For Luciferase assays, cells grown in 24 well plates were co-transfected with a luciferase reporter plasmid (50 ng) and 1 ng of Renilla Luciferase vector (PRL, Promega) using the TransIT-LT 1 (Mirus) transfection reagent (MIR 2300, Madison, WI). Firefly and Renilla luciferase activity was assessed using the Dual Luciferase Reporter Assay system (Promega). Readings were taken in triplicates on a Mithras LB 940 Luminometer (Berthold Technologies). […]
Following transfections, the cells were lysed with passive lysis buffer (Cat #E1941; Promega), shaking for 20 min at RT and transferred into appropriate 96-well plate. Firefly and Renilla luciferase activity was assessed using the Dual Luciferase Reporter Assay system (Cat #E1910; Promega) on a luminometer Mithras 2000 (Centro XZ, LB960, Berthold Technologies, Bad Wildbad, Germany). […] Readings were taken in triplicate.
Following transfections, the cells were lysed with passive lysis buffer (Cat #E1941; Promega), shaking for 20 min at room temperature (RT) and transferred into the appropriate 96-well plate. Firefly and Renilla luciferase activity was assessed using the Dual Luciferase Reporter Assay system (Cat #E1910; Promega) on a luminometer Mithras 2000 (Centro XZ, LB960, Berthold Technologies, Bad Wildbad, Germany). […] Readings were taken in triplicates. […]
After transfections, the cells were lysed with passive lysis buffer (catalog no. E1941, Promega), shaken for 20 minutes at room temperature, and transferred into the appropriate 96-well plate. Firefly and Renilla luciferase activity was assessed using the Dual Luciferase Reporter Assay system (catalog no. E1910, Promega) on a luminometer Mithras 2000 (Centro XZ, LB960; Berthold Technologies, Bad Wildbad, Germany). […] Readings were taken in triplicate.

CD4^+ Th17 cells = assay: Modulation of Th17 populations in human PBMCs (flow cytometry); settings: 10 μM, 3 day assay
Protocol: Human peripheral blood mononuclear cells (PBMCs) were isolated from four healthy donors. Four experiments were conducted and analyzed by flow cytometry over 3 day assay. The control group had no drug treatment, a second were treated with 10 μM Compound 1, a third group was stimulated with PHA/IL-2 without treatment, and the fourth group was stimulated with PHA/IL-2 and incubated with 10 μM Compound 1. […] Further, Compound 1 has no effect on Th17 populations in the absence of PHA/IL-2 stimulation.

[1] = Cellular toxicity assay, CEM cells; settings: human, CEM cells (human lymphoblastoid), compared to cycloheximide (+ control)
Protocol: The toxicity of the compounds was assessed in human PBM, CEM (human lymphoblastoid), and Huh-7 cells, as described previously (see Schinazi R. F., Sommadossi J.-P., Saalmann V., Cannon D. L., Xie M.-Y., Hart G. C., Smith G. A. & Hahn E. F. Antimicrob. Agents Chemother. 1990, 34, 1061-67). Cycloheximide was included as positive cytotoxic control, and untreated cells exposed to solvent were included as negative controls. The cytotoxicity IC50 was obtained from the concentration-response curve using the median effective method described previously (see Chou T.-C. & Talalay P. Adv. Enzyme Regul. 1984, 22, 27-55; Belen'kii M. S. & Schinazi R. F. Antiviral Res. 1994, 25, 1-11).

## O=C1Nc2cc(C(=O)N3CCC(Cc4ccccc4)CC3)ccc2Nc2ccccc21 [Compound 1]
RORα; Huh7, overnight, 1 μM tested compounds, 10 μM SR1078
  Induction of MIR122 promoter, compared with screened set and SR1078: most potent
RORα; Huh-7, mutated RORE
  Luciferase expression from miR-122 promoter with mutated RORE: negates activity; also recorded: no activity; also recorded: no induction
RORα; Huh-7, wild-type RORE, 24 hours of treatment
  Luciferase expression from miR-122 promoter with WT RORE: dose-dependent increase; also recorded: induces expression of RORα-regulated luciferase; also recorded: increase expression of MIR122 promoter activity
CD4^+ Th17 cells; relative to vehicle-control
  Th17 total population in the presence of PHA/IL-2 stimulation: decreases the CD4^+ Th17 population
CD4^+ Th17 cells; with or without PHA/IL-2
  Total viability of CD4^+ T cells: no effect
[1]
  CC50: 11 µM
